Values after ≈ are worked out from the molar mass of the structure shown. Like-named read-outs stand apart in the source and are kept apart here.

Series [1] can be described thus: In vivo blood level study: antiviral activity of mouse serum titrated in plaque inhibition assays. Set-up: species or system Balb/c mice. On the procedure:
Single 100 mg/kg doses of the compound were administered orally as suspensions in carboxymethyl cellulose to groups of 3 starved female Balb/c mice. Blood was collected 120 minutes after dosing and the serum separated and stored at -20°C. Heat inactivated sera from single mice were titrated in plaque inhibition assays using the KOS strain of Herpes simplex type 1 virus in Vero cell monolayers. Antiviral activity is calculated by extrapolation from a standard inhibition dose response curve for E-5-(2-bromovinyl)-2'-deoxyuridine and is quoted as the equivalent concentration of E-5-(2-bromovinyl)-2'-deoxyuridine (in ug/mL) giving the same antiviral activity in cell culture.

Series [2] concerns Herpes simplex type 1 virus (HFEM strain). The series can be described thus: Plaque reduction assay in cell culture. In kind it is cell-based. As to conditions: Human alphaherpesvirus 1, 144 h; concentration causing a 50% reduction in the number of virus plaques; HSV-1 HFEM strain in Vero cells, 37°C, 6 days; read-out: PDD50 (the source's name). On the procedure: (§1) Vero (African Green Monkey Kidney) cells were grown to confluence in 6 well multidishes, each well being 3.5 cm in diameter. The cells were incubated with Herpes simplex type 1 virus (HFEM strain) and overlaid with 0.5 ml of 0.9% agarose (w/v) in maintenance medium containing the test compound at a range of concentrations from 100 pg/mL in half-log dilution steps. The virus infected cultures were then incubated at 37°C for 6 days before fixing in 4% formaldehyde solution and staining with carbolfuchsin. The dishes were then examined to find what concentration of test compound causing a 50% reduction in the number of virus plaques formed (PDD50 value) and the minimum concentration of test compound which killed the cell monolayer, leaving a clear zone devoid of cells and virus plaques (MTD).
In general terms: Plaque reduction counts the foci of infection that form in a cell layer.

Series [3] in a line: Toxicity to the cell monolayer (MTD) in the plaque reduction assay. As to conditions: monkey; minimum concentration which killed the cell monolayer; Vero cells, 6 days. In kind it is cell-based. As for the experimental part: as §1

Regarding `O=c1[nH]c(=O)n([C@H]2C[C@H](O)[C@@H](CO)O2)cc1/C=C/Br` [E-5-(2-bromo-vinyl)-2'-deoxyuridine, E-5-(2-bromovinyl)-2'-deoxyuridine, reference compound], the concentration at 2 h in series [1] (single 100 mg/kg oral dose, suspension in carboxymethyl cellulose, starved female Balb/c mice, 120 minutes after dosing, HSV-1 KOS in Vero cell monolayers, read-out: Antiviral activity in serum, as equivalent concentration of E-5-(2-bromovinyl)-2'-deoxyuridine) was determined as 1700 ± 500 ng/mL.

On to `Cn1c(=O)c(/C=C/Br)cn([C@H]2C[C@H](O)[C@@H](CO)O2)c1=O` [Example 1, E-3-methyl-5-(2-bromovinyl)-2'-deoxyuridine], for which, in series [1] (po, 100 mg/kg), the concentration at 2 h amounted to 3100 ± 800 ng/mL. Also, the EC50 in series [2] was 5.4 µg/mL (≈ 15.6 µM). In series [3], this molecule had an MCC at 144 h above 100 µg/mL.
